The target in test [1] is purified recombinant human GAC (GLS1) (Homo sapiens (Human), UniProt O94925). Kind of test: GLS1 Enzymatic Activity Assay (dual-coupled enzymatic assay, resorufin/Amplex UltraRed readout).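 Note: glutamate from GAC coupled via glutamate oxidase and peroxidase to resorufin, read as fluorescence (ex 530, em 590 nm) kinetically or at 20 min, four-parameter logistic IC50 fit.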 The test is classed as biochemical.
Another test concerns A549 cells. Kind of test: Proliferation Assay (A549 viability, Cell Titer Fluor, 72 hours). To be noted: Homo sapiens, A549, 72 h. It counts as cell-based. The method, boiled down:
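Cell Titer Fluor fluorescence after 72 h compound treatment (0.5% DMSO, 37 °C, 5% CO2) of A549 cells plated 24 h earlier at 1000/well. Four-parameter logistic fitting gave IC50.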

The results in this text go back to patent US10344025B2, “GLS1 inhibitors for treating disease” (Board of Regents, The University of Texas System, priority 2014, dated 2019).

Where only a bound is given, the exact number is not on record here.

purified recombinant human GAC (GLS1), sequence (O94925 other isoform, or with tags, fused parts or gaps): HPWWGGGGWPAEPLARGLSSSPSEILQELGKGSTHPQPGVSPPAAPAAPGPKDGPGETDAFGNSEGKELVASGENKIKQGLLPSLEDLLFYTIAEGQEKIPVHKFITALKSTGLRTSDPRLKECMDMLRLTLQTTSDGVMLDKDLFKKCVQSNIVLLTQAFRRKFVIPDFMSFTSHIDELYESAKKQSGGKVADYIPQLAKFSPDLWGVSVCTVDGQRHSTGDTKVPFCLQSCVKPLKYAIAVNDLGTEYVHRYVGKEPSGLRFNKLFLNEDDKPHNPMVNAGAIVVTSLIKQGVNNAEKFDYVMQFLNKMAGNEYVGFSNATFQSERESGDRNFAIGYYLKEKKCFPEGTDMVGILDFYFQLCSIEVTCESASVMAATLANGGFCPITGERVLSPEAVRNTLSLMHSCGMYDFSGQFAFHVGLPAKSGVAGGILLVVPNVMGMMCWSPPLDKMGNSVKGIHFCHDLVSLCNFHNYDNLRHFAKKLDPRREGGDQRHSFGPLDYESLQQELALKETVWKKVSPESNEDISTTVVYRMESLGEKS

In general, IC50 refers to the concentration needed to halve the response being measured. In general, EC50 refers to the midpoint of the concentration-response curve. On to `O=C(Cc1ccccn1)Nc1cn(CCCCn2cc(C(=O)NCc3cccc(OC(F)(F)F)c3)nn2)nn1` [Example 293, 1-(4-{4-[2-(pyridin-2-yl)acetamido]-1H-1,2,3-triazol-1-yl}butyl)-N-{[3-(trifluoromethoxy)phenyl]methyl}-1H-1,2,3-triazole-4-carboxamide], for which, in test [1], the IC50 was less than 100 nM. Also, the EC50 in the test on A549 cells lay in the range of 100 to 500 nM.

In the case of `O=C(Cc1cccnc1)Nc1cn(CCCCn2cc(C(=O)NCc3cccc(OC(F)(F)F)c3)nn2)nn1` [Example 294, 1-(4-{4-[2-(pyridin-3-yl)acetamido]-1H-1,2,3-triazol-1-yl}butyl)-N-{[3-(trifluoromethoxy)phenyl]methyl}-1H-1,2,3-triazole-4-carboxamide], in test [1], the IC50 is less than 100 nM. The EC50 in the test with A549 cells lay within 100 to 500 nM.

As to `O=C(CC1CCCC1)Nc1cn(CCCCn2cc(C(=O)NCc3cccc(OC(F)(F)F)c3)nn2)nn1` [Example 295, 1-{4-[4-(2-cyclopentylacetamido)-1H-1,2,3-triazol-1-yl]butyl}-N-{[3-(trifluoromethoxy)phenyl]methyl}-1H-1,2,3-triazole-4-carboxamide], the IC50 in test [1] was less than 100 nM. The same molecule gave an EC50 in the test on A549 cells of less than 100 nM.

For `O=C(CC1CCCCC1)Nc1cn(CCCCn2cc(C(=O)NCc3cccc(OC(F)(F)F)c3)nn2)nn1` [Example 296, 1-{4-[4-(2-cyclohexylacetamido)-1H-1,2,3-triazol-1-yl]butyl}-N-{[3-(trifluoromethoxy)phenyl]methyl}-1H-1,2,3-triazole-4-carboxamide], the IC50 in test [1] was less than 100 nM. The EC50 with A549 cells is less than 100 nM.

`Cc1ccc(CNC(=O)c2cn(CCCCn3cc(NC(=O)Cc4cccc(OC(F)(F)F)c4)nn3)nn2)cn1` [Example 299, N-[(6-methylpyridin-3-yl)methyl]-1-[4-(4-{2-[3-(trifluoromethoxy)phenyl]acetamido}-1H-1,2,3-triazol-1-yl)butyl]-1H-1,2,3-triazole-4-carboxamide]: in test [1], the IC50 was less than 100 nM. For the same molecule, the EC50 with A549 cells is less than 100 nM.

Consider `Cc1ccc(CNC(=O)c2cn(CCCCn3cc(NC(=O)CC4CC4)nn3)nn2)cn1` [Example 300, 1-{4-[4-(2-cyclopropylacetamido)-1H-1,2,3-triazol-1-yl]butyl}-N-[(6-methylpyridin-3-yl)methyl]-1H-1,2,3-triazole-4-carboxamide], for which the IC50 in test [1] lay within 500 to 5000 nM. The same molecule gave an EC50 in the test with A549 cells greater than 5000 nM.

For the molecule `O=C(Cc1cccc(OC(F)(F)F)c1)Nc1cn(CCCCn2cc(C(=O)NCC3CC3)nn2)nn1` [Example 301, N-(cyclopropylmethyl)-1-[4-(4-{2-[3-(trifluoromethoxy)phenyl]acetamido}-1H-1,2,3-triazol-1-yl)butyl]-1H-1,2,3-triazole-4-carboxamide], in test [1], the IC50 fell in the range of 100 to 500 nM. The molecule further had an EC50 in the test on A549 cells of 500 to 5000 nM.

Turning to `O=C(CC1CCCCC1)Nc1cn(CCCCn2cc(C(=O)NCC3CC3)nn2)nn1` [Example 305, 1-{4-[4-(2-cyclohexylacetamido)-1H-1,2,3-triazol-1-yl]butyl}-N-(cyclopropylmethyl)-1H-1,2,3-triazole-4-carboxamide], in test [1], the IC50 was in the range of 500 to 5000 nM. This molecule came in with an EC50 with A549 cells of 500 to 5000 nM.

Consider `Cc1ccc(CC(=O)Nc2cn(CCCCn3cc(C(=O)NCc4ccccn4)nn3)nn2)cn1` [Example 306, 1-(4-{4-[2-(6-methylpyridin-3-yl)acetamido]-1H-1,2,3-triazol-1-yl}butyl)-N-(pyridin-2-ylmethyl)-1H-1,2,3-triazole-4-carboxamide], for which the IC50 in test [1] lay within 100 to 500 nM. In the test on A549 cells, this molecule yielded an EC50 of 500 to 5000 nM.

`O=C(Cc1cccc(OC(F)(F)F)c1)Nc1cn(CCCCn2cc(C(=O)NCc3cccnc3)nn2)nn1` [Example 307, N-(pyridin-3-ylmethyl)-1-[4-(4-{2-[3-(trifluoromethoxy)phenyl]acetamido}-1H-1,2,3-triazol-1-yl)butyl]-1H-1,2,3-triazole-4-carboxamide]: the IC50 in test [1] was less than 100 nM. For the same molecule, the EC50 in the test on A549 cells is 100 to 500 nM.

Consider `O=C(CC1CCCC1)Nc1cn(CCCCn2cc(C(=O)NCc3cccnc3)nn2)nn1` [Example 309, 1-{4-[4-(2-cyclopentylacetamido)-1H-1,2,3-triazol-1-yl]butyl}-N-(pyridin-3-ylmethyl)-1H-1,2,3-triazole-4-carboxamide], for which the IC50 in test [1] fell in the range of 100 to 500 nM. This molecule also showed an EC50 in the test with A549 cells of 100 to 500 nM.

As to `O=C(CC1CCCCC1)Nc1cn(CCCCn2cc(C(=O)NCc3cccnc3)nn2)nn1` [Example 310, 1-{4-[4-(2-cyclohexylacetamido)-1H-1,2,3-triazol-1-yl]butyl}-N-(pyridin-3-ylmethyl)-1H-1,2,3-triazole-4-carboxamide], in test [1], the IC50 is less than 100 nM. The molecule also returned a half-maximal effective concentration (EC50) in the test with A549 cells of 100 to 500 nM.

In the case of `Cc1ccc(CC(=O)Nc2cn(CCCCn3cc(C(=O)NCC4CCCC4)nn3)nn2)cn1` [Example 311, N-(cyclopentylmethyl)-1-(4-{4-[2-(6-methylpyridin-3-yl)acetamido]-1H-1,2,3-triazol-1-yl}butyl)-1H-1,2,3-triazole-4-carboxamide], the half-inhibitory concentration (IC50) in test [1] was in the range of 100 to 500 nM. Also, the EC50 in the test with A549 cells lay within 500 to 5000 nM.

For the molecule `Cc1ccc(CC(=O)Nc2cn(CCCCn3cc(C(=O)NCC4CCCCC4)nn3)nn2)cn1` [Example 312, N-(cyclohexylmethyl)-1-(4-{4-[2-(6-methylpyridin-3-yl)acetamido]-1H-1,2,3-triazol-1-yl}butyl)-1H-1,2,3-triazole-4-carboxamide], the half-inhibitory concentration (IC50) in test [1] lay in the range of 100 to 500 nM. For the same molecule, the EC50 with A549 cells lay in the range of 500 to 5000 nM.

For the molecule `Cc1ccc(CC(=O)Nc2cn(CCCCn3cc(C(=O)NCc4cccc(OC(F)(F)F)c4)nn3)nn2)cn1` [Example 313, 1-(4-{4-[2-(6-methylpyridin-3-yl)acetamido]-1H-1,2,3-triazol-1-yl}butyl)-N-{[3-(trifluoromethoxy)phenyl]methyl}-1H-1,2,3-triazole-4-carboxamide], the half-maximal inhibitory concentration (IC50) in test [1] is less than 100 nM. In addition, in the test on A549 cells, the EC50 is less than 100 nM.

Consider `Cc1ccc(CNC(=O)c2cn(CCCCn3cc(NC(=O)Cc4ccccn4)nn3)nn2)cn1` [Example 314, N-[(6-methylpyridin-3-yl)methyl]-1-(4-{4-[2-(pyridin-2-yl)acetamido]-1H-1,2,3-triazol-1-yl}butyl)-1H-1,2,3-triazole-4-carboxamide], for which, in test [1], the concentration for half-maximal inhibition (IC50) was 100 to 500 nM. Besides, the EC50 with A549 cells lay in the range of 500 to 5000 nM.

For the molecule `Cc1ccc(CNC(=O)c2cn(CCCCn3cc(NC(=O)Cc4cccnc4)nn3)nn2)cn1` [Example 315, N-[(6-methylpyridin-3-yl)methyl]-1-(4-{4-[2-(pyridin-3-yl)acetamido]-1H-1,2,3-triazol-1-yl}butyl)-1H-1,2,3-triazole-4-carboxamide], the IC50 in test [1] fell in the range of 100 to 500 nM. Further, the EC50 with A549 cells lay within 500 to 5000 nM.

As for `Cc1ccc(CNC(=O)c2cn(CCCCn3cc(NC(=O)Cc4ccc(C)nc4)nn3)nn2)cn1` [Example 316, 1-(4-{4-[2-(6-methylpyridin-3-yl)acetamido]-1H-1,2,3-triazol-1-yl}butyl)-N-[(6-methylpyridin-3-yl)methyl]-1H-1,2,3-triazole-4-carboxamide], the IC50 in test [1] was less than 100 nM. In the test with A549 cells, this molecule showed an EC50 of 500 to 5000 nM.

Turning to `Cc1ccc(CNC(=O)c2cn(CCCCn3cc(NC(=O)CC4CCCC4)nn3)nn2)cn1` [Example 317, 1-{4-[4-(2-cyclopentylacetamido)-1H-1,2,3-triazol-1-yl]butyl}-N-[(6-methylpyridin-3-yl)methyl]-1H-1,2,3-triazole-4-carboxamide], the IC50 in test [1] was 100 to 500 nM. This molecule also had a concentration giving a half-maximal response (EC50) in the test on A549 cells of 100 to 500 nM.

With `Cc1ccc(CNC(=O)c2cn(CCCCn3cc(NC(=O)CC4CCCCC4)nn3)nn2)cn1` [Example 318, 1-{4-[4-(2-cyclohexylacetamido)-1H-1,2,3-triazol-1-yl]butyl}-N-[(6-methylpyridin-3-yl)methyl]-1H-1,2,3-triazole-4-carboxamide], the IC50 in test [1] was less than 100 nM. The molecule also registered an EC50 in the test on A549 cells of less than 100 nM.

Regarding `Cc1ccc(CC(=O)Nc2cn(CCCCn3cc(C(=O)NCC4CC4)nn3)nn2)cn1` [Example 319, N-(cyclopropylmethyl)-1-(4-{4-[2-(6-methylpyridin-3-yl)acetamido]-1H-1,2,3-triazol-1-yl}butyl)-1H-1,2,3-triazole-4-carboxamide], the IC50 in test [1] fell in the range of 500 to 5000 nM. The molecule also had an EC50 in the test on A549 cells greater than 5000 nM.

In the case of `O=C(Cc1cccnc1)Nc1cn(CCCCn2cc(C(=O)NCc3cccnc3)nn2)nn1` [Example 320, 1-(4-{4-[2-(pyridin-3-yl)acetamido]-1H-1,2,3-triazol-1-yl}butyl)-N-(pyridin-3-ylmethyl)-1H-1,2,3-triazole-4-carboxamide], the IC50 in test [1] was in the range of 100 to 500 nM. In the test on A549 cells, this molecule displayed an EC50 of 500 to 5000 nM.

Regarding `O=C(Cc1ccccn1)Nc1cn(CCCCn2cc(C(=O)NCc3cccnc3)nn2)nn1` [Example 321, 1-(4-{4-[2-(pyridin-2-yl)acetamido]-1H-1,2,3-triazol-1-yl}butyl)-N-(pyridin-3-ylmethyl)-1H-1,2,3-triazole-4-carboxamide], the IC50 in test [1] is 500 to 5000 nM. The same molecule gave a half-maximal effective concentration (EC50) with A549 cells of 500 to 5000 nM.

Turning to `Cc1ccc(CC(=O)Nc2cn(CCCCn3cc(C(=O)NCc4cccnc4)nn3)nn2)cn1` [Example 322, 1-(4-{4-[2-(6-methylpyridin-3-yl)acetamido]-1H-1,2,3-triazol-1-yl}butyl)-N-(pyridin-3-ylmethyl)-1H-1,2,3-triazole-4-carboxamide], in test [1], the half-inhibitory concentration (IC50) lay within 100 to 500 nM. This molecule returned an EC50 with A549 cells of 500 to 5000 nM.

As for `O=C(Cc1cccc(OC(F)(F)F)c1)Nc1cn(CC(F)CCn2cc(C(=O)NCc3ccccn3)nn2)nn1` (stereo not shown) [Example 327, 1-[3-fluoro-4-(4-{2-[3-(trifluoromethoxy)phenyl]acetamido}-1H-1,2,3-triazol-1-yl)butyl]-N-(pyridin-2-ylmethyl)-1H-1,2,3-triazole-4-carboxamide], the IC50 in test [1] is less than 100 nM. In the test with A549 cells, the EC50 was less than 100 nM.

In the case of `Cc1ccc(CNC(=O)c2cn(CCC(F)Cn3cc(NC(=O)Cc4cccc(OC(F)(F)F)c4)nn3)nn2)cn1` (stereo not shown) [Example 328, 1-[3-fluoro-4-(4-{2-[3-(trifluoromethoxy)phenyl]acetamido}-1H-1,2,3-triazol-1-yl)butyl]-N-[(6-methylpyridin-3-yl)methyl]-1H-1,2,3-triazole-4-carboxamide], in test [1], the IC50 is less than 100 nM. Also, the EC50 in the test on A549 cells is less than 100 nM.
